The record followed here is patent US10870647B2, “Imidazopyridine derivative, method for preparing same, and pharmaceutical composition containing same as active ingredient for preventing or treating cancer” (DAEGU-GYEONGBUK MEDICAL INNOVATION FOUNDATION, priority 2016, dated 2020).

What all share (assay): Kinase selectivity, scanMAX Kinase assay panel (DiscoverX), % control at 1 uM
Holding throughout (assay type): binding

The target of assay [1] is T1, scanMAX Kinase assay panel (Homo sapiens, UniProt P36507).
T1 construct: purchased DiscoverX
T1 sequence (P36507 whole entry): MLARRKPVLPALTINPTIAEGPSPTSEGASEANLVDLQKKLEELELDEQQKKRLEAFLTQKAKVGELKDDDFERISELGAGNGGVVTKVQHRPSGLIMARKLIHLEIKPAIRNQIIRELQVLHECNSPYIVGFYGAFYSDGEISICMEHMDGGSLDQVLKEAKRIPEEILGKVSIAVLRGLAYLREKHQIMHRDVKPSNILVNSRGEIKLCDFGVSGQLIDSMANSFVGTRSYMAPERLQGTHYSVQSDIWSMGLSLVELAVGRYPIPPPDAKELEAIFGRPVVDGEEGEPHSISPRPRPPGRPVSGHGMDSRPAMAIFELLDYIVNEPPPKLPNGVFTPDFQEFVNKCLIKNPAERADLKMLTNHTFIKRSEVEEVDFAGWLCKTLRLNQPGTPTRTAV
The following applies: MEK2; 1 uM; read-out: Percent Control (%). In outline: (§1)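 1 uM cpd (DMSO) per kinase; % ctrl = [cpd − pos ctrl]/[neg ctrl − pos ctrl] × 100; hit if <35.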

Assay [2] has as its target T2, scanMAX Kinase assay panel (Homo sapiens, UniProt Q13237).
T2 construct: purchased DiscoverX
T2 sequence (Q13237 1-762): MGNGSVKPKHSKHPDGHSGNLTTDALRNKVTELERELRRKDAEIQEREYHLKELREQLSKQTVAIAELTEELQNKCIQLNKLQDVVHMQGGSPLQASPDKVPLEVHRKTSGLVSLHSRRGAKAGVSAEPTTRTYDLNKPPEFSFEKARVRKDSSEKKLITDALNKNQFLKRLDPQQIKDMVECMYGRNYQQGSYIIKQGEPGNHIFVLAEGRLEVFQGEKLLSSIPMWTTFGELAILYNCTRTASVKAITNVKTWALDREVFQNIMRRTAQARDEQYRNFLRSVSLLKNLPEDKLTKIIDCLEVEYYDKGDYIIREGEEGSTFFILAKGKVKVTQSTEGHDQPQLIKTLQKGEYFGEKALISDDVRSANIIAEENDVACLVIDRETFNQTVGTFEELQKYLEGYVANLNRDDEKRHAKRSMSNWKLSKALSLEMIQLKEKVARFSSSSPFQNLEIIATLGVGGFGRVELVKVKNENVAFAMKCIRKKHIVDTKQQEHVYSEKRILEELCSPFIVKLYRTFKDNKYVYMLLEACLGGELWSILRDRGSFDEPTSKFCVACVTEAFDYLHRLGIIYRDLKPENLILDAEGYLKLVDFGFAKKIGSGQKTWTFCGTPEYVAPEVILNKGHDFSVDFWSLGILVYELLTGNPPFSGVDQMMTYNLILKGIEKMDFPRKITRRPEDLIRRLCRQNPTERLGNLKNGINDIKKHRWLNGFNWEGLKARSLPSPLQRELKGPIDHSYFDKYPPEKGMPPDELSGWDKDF
The following applies: PRKG2; 1 uM; read-out: Percent Control (%). In outline:
as §1

In assay [3] the target is T3, scanMAX Kinase assay panel (Homo sapiens, UniProt P27037).
T3 construct: purchased DiscoverX
T3 sequence (P27037 20-513): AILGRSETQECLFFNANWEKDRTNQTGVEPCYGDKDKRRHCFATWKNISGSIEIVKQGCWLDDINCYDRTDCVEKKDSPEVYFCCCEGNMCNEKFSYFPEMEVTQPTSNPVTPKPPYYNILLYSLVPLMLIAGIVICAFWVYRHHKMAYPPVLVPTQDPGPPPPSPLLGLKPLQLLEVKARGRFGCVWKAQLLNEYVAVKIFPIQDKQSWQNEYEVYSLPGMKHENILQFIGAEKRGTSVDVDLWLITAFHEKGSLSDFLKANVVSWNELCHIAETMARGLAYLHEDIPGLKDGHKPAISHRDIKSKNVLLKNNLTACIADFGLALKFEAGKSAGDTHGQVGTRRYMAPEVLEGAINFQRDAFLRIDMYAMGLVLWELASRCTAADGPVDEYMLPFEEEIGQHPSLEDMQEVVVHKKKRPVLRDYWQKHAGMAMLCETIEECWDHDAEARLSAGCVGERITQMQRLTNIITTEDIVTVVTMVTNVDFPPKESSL
The following applies: ACVR2A; 1 uM; read-out: Percent Control (%). In outline:
as §1

For assay [4], the target named is T4, scanMAX Kinase assay panel (Homo sapiens, UniProt Q6ZWH5).
T4 construct: purchased DiscoverX
T4 sequence (Q6ZWH5 1-1172): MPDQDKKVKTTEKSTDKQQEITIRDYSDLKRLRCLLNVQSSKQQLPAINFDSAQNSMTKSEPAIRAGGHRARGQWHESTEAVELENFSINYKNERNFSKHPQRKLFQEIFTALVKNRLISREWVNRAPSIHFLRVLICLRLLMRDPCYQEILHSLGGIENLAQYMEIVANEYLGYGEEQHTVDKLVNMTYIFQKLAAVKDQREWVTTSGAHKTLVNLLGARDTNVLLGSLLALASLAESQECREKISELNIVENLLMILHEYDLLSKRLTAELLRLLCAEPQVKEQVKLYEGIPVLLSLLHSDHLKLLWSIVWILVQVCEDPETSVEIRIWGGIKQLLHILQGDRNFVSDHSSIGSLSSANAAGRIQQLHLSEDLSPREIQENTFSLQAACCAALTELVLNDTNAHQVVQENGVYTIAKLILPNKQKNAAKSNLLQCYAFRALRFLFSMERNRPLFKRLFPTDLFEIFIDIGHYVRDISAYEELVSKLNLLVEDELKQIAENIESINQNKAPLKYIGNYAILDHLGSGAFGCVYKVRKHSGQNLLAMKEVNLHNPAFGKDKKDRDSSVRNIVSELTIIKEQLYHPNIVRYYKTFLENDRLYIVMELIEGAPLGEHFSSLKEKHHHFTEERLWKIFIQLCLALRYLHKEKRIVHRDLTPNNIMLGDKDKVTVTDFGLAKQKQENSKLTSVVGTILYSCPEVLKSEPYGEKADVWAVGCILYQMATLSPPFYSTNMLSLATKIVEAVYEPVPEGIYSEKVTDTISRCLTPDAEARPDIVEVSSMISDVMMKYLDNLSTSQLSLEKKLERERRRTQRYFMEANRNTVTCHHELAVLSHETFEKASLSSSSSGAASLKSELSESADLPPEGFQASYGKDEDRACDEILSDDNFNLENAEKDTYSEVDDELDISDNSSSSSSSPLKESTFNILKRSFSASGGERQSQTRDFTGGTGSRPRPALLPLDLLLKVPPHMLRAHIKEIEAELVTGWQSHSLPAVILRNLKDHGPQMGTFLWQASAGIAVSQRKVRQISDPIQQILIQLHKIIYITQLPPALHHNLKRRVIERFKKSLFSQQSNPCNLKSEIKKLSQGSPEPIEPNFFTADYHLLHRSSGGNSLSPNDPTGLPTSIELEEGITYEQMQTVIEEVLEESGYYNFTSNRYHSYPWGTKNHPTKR
Conditions: NEK10; 1 uM; read-out: Percent Control (%). In outline: as §1

Assay [5] concerns the target T5, scanMAX Kinase assay panel (Homo sapiens, UniProt Q9UKE5).
T5 construct: purchased DiscoverX
Conditions: TNIK; 1 uM; read-out: Percent Control (%). In short, it runs like this: as §1

T5 sequence (Q9UKE5 whole entry): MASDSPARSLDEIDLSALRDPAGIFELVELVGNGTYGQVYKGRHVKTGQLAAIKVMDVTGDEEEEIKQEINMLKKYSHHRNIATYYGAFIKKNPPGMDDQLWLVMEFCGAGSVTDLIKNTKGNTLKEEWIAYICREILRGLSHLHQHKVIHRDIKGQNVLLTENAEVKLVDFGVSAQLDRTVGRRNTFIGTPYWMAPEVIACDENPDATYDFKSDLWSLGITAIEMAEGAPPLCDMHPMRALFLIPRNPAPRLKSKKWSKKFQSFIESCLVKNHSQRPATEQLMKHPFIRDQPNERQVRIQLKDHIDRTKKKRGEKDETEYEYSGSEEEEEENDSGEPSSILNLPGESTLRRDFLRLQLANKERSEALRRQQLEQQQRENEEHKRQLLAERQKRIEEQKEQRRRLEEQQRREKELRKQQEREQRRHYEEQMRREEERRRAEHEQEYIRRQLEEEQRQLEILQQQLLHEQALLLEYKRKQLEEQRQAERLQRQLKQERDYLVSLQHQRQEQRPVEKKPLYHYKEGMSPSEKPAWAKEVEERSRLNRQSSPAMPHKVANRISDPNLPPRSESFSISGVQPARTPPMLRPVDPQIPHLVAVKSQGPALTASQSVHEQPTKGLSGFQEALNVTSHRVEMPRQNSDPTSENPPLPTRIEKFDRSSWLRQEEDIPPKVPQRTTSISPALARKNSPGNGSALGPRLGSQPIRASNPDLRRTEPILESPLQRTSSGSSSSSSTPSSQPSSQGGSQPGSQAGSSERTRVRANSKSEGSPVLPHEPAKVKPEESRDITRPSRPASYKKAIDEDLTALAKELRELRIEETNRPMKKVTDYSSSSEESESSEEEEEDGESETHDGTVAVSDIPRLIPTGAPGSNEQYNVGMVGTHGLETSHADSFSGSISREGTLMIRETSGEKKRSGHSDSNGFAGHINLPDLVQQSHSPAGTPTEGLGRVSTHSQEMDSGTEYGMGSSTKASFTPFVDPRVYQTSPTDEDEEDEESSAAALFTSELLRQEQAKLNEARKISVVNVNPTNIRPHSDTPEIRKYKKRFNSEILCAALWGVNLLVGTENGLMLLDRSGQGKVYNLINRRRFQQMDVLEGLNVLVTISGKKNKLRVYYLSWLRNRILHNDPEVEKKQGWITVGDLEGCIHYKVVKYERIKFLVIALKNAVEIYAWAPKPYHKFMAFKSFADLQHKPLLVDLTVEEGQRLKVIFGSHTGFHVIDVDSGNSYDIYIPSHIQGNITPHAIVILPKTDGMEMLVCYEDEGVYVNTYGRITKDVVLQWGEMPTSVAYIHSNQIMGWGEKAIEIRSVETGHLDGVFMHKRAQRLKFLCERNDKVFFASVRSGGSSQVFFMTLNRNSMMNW

`Cc1ccc(C(=O)Nc2ccc(CN3CCN(C)CC3)c(C(F)(F)F)c2)cc1C#Cc1cnc2c(Nc3cnn(C)c3)cccn12` [Example 1, 4-methyl-3-((8-((1-methyl-1H-pyrazol-4-yl)amino)imidazo[1,2-a]pyridin-3-yl)ethynyl)-N-(4-((4-methylpiperazin-1-yl)methyl)-3-(trifluoromethyl)phenyl)benzamide]: the remaining binding at 1 µM in assay [1] amounted to 76%; in assay [2], 75%; in assay [3], 95%; in assay [4] it was 100%; in assay [5], 11%.
Consider `Cc1cn(-c2cc(NC(=O)c3ccc(C)c(C#Cc4cnc5c(Nc6cnn(C)c6)cccn45)c3)cc(C(F)(F)F)c2)cn1` [Example 12, 4-methyl-N-(3-(4-methyl-1H-imidazol-1-yl)-5-(trifluoromethyl)phenyl)-3-((8-((1-methyl-1H-pyrazol-4-yl)amino)imidazo[1,2-a]pyridin-3-yl)ethynyl)benzamide], for which the remaining binding at 1 µM in assay [1] worked out at 88%; in assay [2], 90%; in assay [3] it was 100%; in assay [4] it was 100%; in assay [5] it was 17%.
Consider `Cc1ccc(NC(=O)C2(C(=O)Nc3ccc(F)cc3)CC2)cc1C#Cc1cnc2c(Nc3cnn(C(C)C)c3)cccn12` [Example 78], for which the remaining binding at 1 µM was 97% in assay [1]; 100% in assay [2]; 100% in assay [3]; 100% in assay [4]; 88% in assay [5].
